“And” between values parts separate entries of the source, which are not always exact repeats. Equal entries are not always repeated.
Legend:
[1] = test system: tomato leaf transpiration; assay: Tomato leaf transpiration inhibition after foliar spray (LI-1600 porometer); assay type: in vivo, Tomato (variety: Rutgers); conditions: for Transpiration rate (% of control), 1 day after treatment: day 1; for Transpiration rate (% of control), 2 days after treatment: day 2; for Transpiration rate (% of control), 3 days after treatment: day 3; for Transpiration rate (% of control), 4 days after treatment: day 4; for Transpiration rate (% of control), 7 days after treatment: day 7; for ABA dose to achieve 50% inhibition of transpiration: from linear regression of 3-day average transpiration rate on log dose
Protocol: (§1) Preparation of plant specimens for use in the treatment studies of the EXAMPLES that follow was carried out as follows. Tomato (variety: Rutgers) seeds were sown in an 18-cell flat filled with Promix PGX (available from Premier Horticulture Inc., Quakertown Pa.) and grown for 3 weeks to allow for germination and initial growth. Plants were then transplanted into pots (18 cm in diameter and 18 cm in height), filled with Promix BX (available from Premier Horticulture Inc., Quakertown Pa.), and grown for one or two more weeks before treatment, depending on temperature and available light. Plants received daily irrigation and weekly fertilizer (1 g/L all purpose fertilizer 20-20-20, available from The Scotts Company, Marysville, Ohio).
(§2) All treatment solutions were made up with distilled water. The (S)-(+)-abscisic acid (95% active ingredient) is available from Lomon BioTechnology Co., Ltd. (Shichuan, China). The prior art aqueous solution composition of the ammonium salt of (S)-(+)-abscisic acid as prepared in Example 11 above was used as a positive treatment control for most of the studies.
(§3) All experiments were conducted using a randomized complete block experimental design. Solutions of (S)-(+)-abscisic acid and blank treatments (plain water) were applied by spray to the aerial parts of the tomato plants at the rate of 24 mL per 6 plants. Plants were then placed in a transparent chamber with humidity controlled within the range of 40 to 60% relative humidity. Leaf transpiration rates were measured at 1, 2, 3, 4 and 7 days after treatment. Measurements were conducted using a LI-1600 Steady State Porometer (LI-Cor, Lincoln, Nebr.). Each day the transpiration rate of the plants of each treatment group was normalized to a percentage of the transpiration rate of untreated plants (plants sprayed with water only) in order to control for day-to-day variability in plant status caused by changes of environmental conditions such as light intensity and temperature. Data for each plant was also averaged over a 3-day period to balance the short term and long term effect of (S)-(+)-abscisic acid on tomato leaf transpiration as well as to reduce experimental variability.
The regression equation of each (S)-(+)-abscisic acid salt as well as abscisic acid concentrations for 50% inhibition of transpiration were calculated. The relative potency of two ABA salts is the reciprocal of the ratio of (S)-(+)-abscisic acid concentration required for 50% transpiration inhibition for each composition.

[2] = test system: tomato shoot fresh weight; assay: Tomato shoot fresh weight 7 days after treatment (growth suppression); assay type: in vivo, Tomato (variety: Rutgers); conditions: foliar spray
Protocol: as §1, §2, §3
In this experiment, the fresh weights of the aerial parts of the tomato plants were also measured at the end of the experiment, 7 days after treatments were applied, in order to assess the relative growth suppressing activity of the compositions.

tomato plants = assay: Phytotoxicity observed on treated tomato plants; assay type: in vivo, Tomato (variety: Rutgers)
Protocol: as §3, with “variability. It is important to note that no phytotoxicity was observed on any of the plants treated with the compositions of the present invention.” for “variability.”

[3] = cited from earlier work
[4] = (S)-(+)-abscisic acid dose 0.3 mg, foliar spray
[5] = (S)-(+)-abscisic acid dose 1 mg, foliar spray
[6] = (S)-(+)-abscisic acid dose 3 mg, foliar spray
[7] = (S)-(+)-abscisic acid dose 10 mg, foliar spray
[8] = foliar spray, 250 ppm (S)-(+)-abscisic acid (1 mg), additives as in label
[9] = reciprocal of ratio of doses for 50% transpiration inhibition
[10] = 75 ppm (0.3 mg) (S)-(+)-abscisic acid
[11] = 250 ppm (1 mg) (S)-(+)-abscisic acid, additives as in label
[12] = 750 ppm (3 mg) (S)-(+)-abscisic acid
[13] = 2500 ppm (10 mg) (S)-(+)-abscisic acid

Row | Compound | Transpiration rate (% of control), Average of 3 days after treatment [1, 4] | Transpiration rate (% of control), Average of 3 days after treatment [1, 5] | Transpiration rate (% of control), Average of 3 days after treatment [1, 6] | Transpiration rate (% of control), Average of 3 days after treatment [1, 7] | Transpiration rate (% of control), 7-Day Average [1, 8] | Transpiration rate (% of control), 1 day after treatment [1, 8] | Transpiration rate (% of control), 2 days after treatment [1, 8] | Transpiration rate (% of control), 3 days after treatment [1, 8] | Transpiration rate (% of control), 4 days after treatment [1, 8] | Transpiration rate (% of control), 7 days after treatment [1, 8] | ABA dose to achieve 50% inhibition of transpiration [1] | Fresh weight (g) 7 days after treatment [2, 10] [g] | Fresh weight (g) 7 days after treatment [2, 11] [g] | Fresh weight (g) 7 days after treatment [2, 12] [g] | Fresh weight (g) 7 days after treatment [2, 13] [g] | other results
1 | CC1=CC(=O)CC(C)(C)[C@@]1(O)/C=C/C(C)=C\C(=O)[O-].CCCC[N+](CCCC)(CCCC)CCCC [Example 4, Tetrabutylammonium Salt of (S)-(+)-Abscisic Acid] | 84 % of control and 80 % of control | 72 % of control and 61 % of control | 56 % of control and 47 % of control | 38 % of control and 29 % of control | 70.9 % of control | 63.4 % of control and 55.1 % of control | 73.9 % of control and 61.0 % of control | 77.8 % of control and 68.3 % of control | 79.3 % of control and 77.6 % of control | 89.2 % of control and 92.4 % of control | 4.35 mg and 2.33 mg | 15.3 | 14.8 | 12.5 | 11.4 | Transpiration rate (% of control), 9-Day Average ([1]; foliar spray, 250 ppm (S)-(+)-abscisic acid (1 mg), additives as in label, 9-day average): 79.7 % of control; Transpiration rate (% of control), 9 days after treatment ([1]; foliar spray, 250 ppm (S)-(+)-abscisic acid (1 mg), additives as in label, day 9): 94.6 % of control; Relative potency compared to the tributylamine salt composition of Comparative Example 14 [1, 9]: 1.9 times; Phytotoxicity (tomato plants; tomato plants after foliar spray): without producing phytotoxicity
2 | CC1=CC(=O)CC(C)(C)[C@@]1(O)/C=C/C(C)=C\C(=O)[O-].C[N+](C)(C)CCO [Example 5, Choline Salt of (S)-(+)-abscisic Acid] | 78 % of control | 63 % of control | 53 % of control | 41 % of control | 72.5 % of control | 52.3 % of control | 63.7 % of control | 73.8 % of control | 79.0 % of control | 93.4 % of control | 4.02 mg | 18.2 | 17.5 | 16.8 | 16.0 | Relative potency compared to the ammonium salt composition of Comparative Example 11 [1, 9]: 2.6 times and 4.2 times; Phytotoxicity (tomato plants; in vivo): without producing phytotoxicity
3 | CC1=CC(=O)CC(C)(C)[C@@]1(O)/C=C/C(C)=C\C(=O)O [abscisic acid, 2-cis-,4-trans-(S)-(+)-abscisic acid] | – | – | – | – | – | – | – | – | – | – | – | – | – | – | – | Solubility in propylene glycol ([3]; propylene glycol): poorly soluble; Solubility in water (highest concentration achievable) ([3]; pure water, room / ordinary ambient temperature): ≤ 3000 ppm
